Laboratory results as given in patent US20030157640A1, “Aequorin as a growth marker in yeast” (priority 2001, published 2003).

How the values were obtained:
pheromone receptor Ste2 [1] = target: T1, pheromone receptor Ste2 (Saccharomyces cerevisiae, UniProt D6VTK4); assay: Pheromone pathway activity reporter assay, 4PRE-Aequorin reporter in yeast; assay type: cell-based
T1 construct: As a yeast strain W303 MAT a, far::hisG, sst2::URA3^FOA, fus1::HIS3 was used; endogenous in cells; host or cells: yeast strain W303 MATa far::hisG sst2::URA3^FOA fus1::HIS3, transformed with reporter plasmid p78 4PRE-AEQ or p78 4PRE-LacZ
T1 sequence (D6VTK4 1-431): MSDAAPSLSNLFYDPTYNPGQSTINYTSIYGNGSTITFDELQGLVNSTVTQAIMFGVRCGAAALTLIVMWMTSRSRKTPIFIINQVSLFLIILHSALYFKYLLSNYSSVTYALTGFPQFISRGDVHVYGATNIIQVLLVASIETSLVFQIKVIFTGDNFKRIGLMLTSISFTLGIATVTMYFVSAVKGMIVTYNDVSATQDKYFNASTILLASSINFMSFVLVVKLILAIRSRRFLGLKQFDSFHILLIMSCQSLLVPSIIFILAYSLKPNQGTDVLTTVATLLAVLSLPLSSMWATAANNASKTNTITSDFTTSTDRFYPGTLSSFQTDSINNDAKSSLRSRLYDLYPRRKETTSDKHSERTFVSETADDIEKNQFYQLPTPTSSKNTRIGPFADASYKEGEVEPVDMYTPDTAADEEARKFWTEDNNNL
Method: (§1) As a yeast strain W303 MAT a, far::hisG, sst2::URA3^FOA, fus1::HIS3 was used.
The cells are distributed and/or grown in a white 96-well plate, in a volume of 100 μl.
30 minutes before the measurement time point, 10 μl of a 5 μM coelenterazine (Molecular Probes) solution is distributed in each well (to obtain a 0.5 μM final concentration) to load the cells.
The plate is then incubated at 30° C. for the last 30 minutes.
Aequorin detection is made in a luminometer with injecting system (Luminoskan, Labsystems). For each well, immediately after injection of a 10 mM CaCl2 solution (1M CaCl2 diluted in lysis buffer Y-PER from Pierce), the luminescent signal is integrated for 15 seconds.
To avoid the intermediate step of loading, it is possible to introduce coelenterazine in the medium at the beginning of the assay: coelenterazine is added at a concentration of 0.5 μM.
(§2) In this assay, the expression of the two reporter genes depends on the activity of the pheromone mating pathway (Leberer et al., 1997). The minimal promoter 4PRE amplified from the FUS1 promoter region (Hagen et al., 1991) is activated only in case of a mating signal. This signal is elicited by stimulation of the pheromone receptor Ste2 by its ligand α-factor.
(§3) Three colonies of the yeast strain transformed with either p78 4PRE-AEQ or p78 4PRE-LacZ plasmids were grown in the appropiate medium (SC Glucose—Trp) to stationary phase and then diluted in the same medium (with 0.5 μM coelenterazin for the aequorin strain) containing 0; 10^−7; 10^−9; 10^−11M α-factor (Sigma). The plates were then shaken at 30° C., 700 r.p.m., for 3, 6 and 24 hours.
(§4) To allow the comparison between the two reporters and the different stimulation times, the measured detection numbers of Aequorin (FIG. 5) and β-Galactosidase (FIG. 6) are expressed as a ratio: stimulated/non stimulated.

pheromone receptor Ste2 [2] = target: T1, pheromone receptor Ste2; assay: Pheromone pathway activity reporter assay, 4PRE-LacZ (β-Galactosidase) reporter in yeast; assay type: cell-based
Method: as §1
The cells are distributed and/or grown in a white 96-well plate, in a volume of 100 μl. At the measurement time point, each well receives 100 μl of a β-Galactosidase detection mix (Gal-screen, Tropix).
The plate is incubated for one hour at 28° C.
β-Galactosidase signal is read in a luminometer; the luminescent signal is integrated for 0.5 seconds.
as §2, §3, §4

GPCR Ste2 = target: T2, GPCR Ste2 (Saccharomyces cerevisiae, UniProt D6VTK4); settings: yeast cell, basal level approximately 100 nM; Iida et al., 1990; cited from earlier work
T2 construct: The addition of α-factor to a yeast cell (i.e. stimulation of the GPCR Ste2) raises [Ca^2+]i
T2 sequence (D6VTK4 1-431): T1 sequence (D6VTK4 1-431)

[3] = 1 nM α-factor, 3 hours of stimulation
[4] = 1 nM α-factor, 6 hours of stimulation
[5] = 100 nM α-factor, 3 hours of stimulation
[6] = 100 nM α-factor, 6 hours of stimulation

α-factor
Aequorin detection ratio stimulated/non stimulated (pheromone receptor Ste2 [1]; [3]): 8 | Aequorin detection ratio stimulated/non stimulated (pheromone receptor Ste2 [1]; [4]): 11 | Aequorin detection ratio stimulated/non stimulated (pheromone receptor Ste2 [1]; [5]): 24 | Aequorin detection ratio stimulated/non stimulated (pheromone receptor Ste2 [1]; [6]): 36 | β-Galactosidase detection ratio stimulated/non stimulated (pheromone receptor Ste2 [2]; [3]): 4 | β-Galactosidase detection ratio stimulated/non stimulated (pheromone receptor Ste2 [2]; [4]): 7 | β-Galactosidase detection ratio stimulated/non stimulated (pheromone receptor Ste2 [2]; [5]): 7 | β-Galactosidase detection ratio stimulated/non stimulated (pheromone receptor Ste2 [2]; [6]): 7 | [Ca2+]i after addition of α-factor (GPCR Ste2): a few hundred
